Molecular target: AC17-4 RNA aptamer
Experiment: Affinity measurement by SPR, AC17-4 immobilized chip
Format: binding
Details: for Kd: 25 °C; for affinity for AC17-4 (in words): ASP2905 versus ASP7967
Procedure: Affinity measurements of the aptamers with the ligands by SPR were performed as described by Chang et al.^53 with some modifications. Experiments were performed on Biacore T200 (Cytiva) at 25° C. For immobilization of the capture DNA (5′-/5AmMC6/[…]-3′ (SEQ ID NO: 32),/5AmMC6/: 5′ amino modifier C6, IDT), 1×HBS-N (10 mM HEPES, pH 7.4, 150 mM NaCl) was used as the running buffer. CM5 chip surface was washed by two injections of NaOH/NaCl solution (25 mM NaOH, 1 M NaCl) at 20 μl min^−1 for 30 s. Next, a solution containing 200 mM 1-ethyl-3-(3-dimethylaminopropyl) carbodiimide hydrochloride (EDC) and 50 mM N-hydroxysuccinimide (NHS) was injected into all flow cells at 10 μl min^−1 for 7 min to activate the surface carboxylic acid groups. Then, the capture DNA (20 μM) in 10 mM HEPES-KOH buffer (pH 7.5) supplemented with 0.6 mM cetyltrimethylammonium bromide was injected at 5 μl min^−1 for 10 min. The unreacted activated carboxylic acid groups were quenched by an injection of 1 M ethanolamine-HCl (pH 8.5) for 7 min at 10 μl min^−1. To remove the noncovalently adsorbed DNA on the chip surface, NaOH/NaCl solution was injected two times at 20 μl min^−1 for 30 s. The immobilized DNA levels were 2846±284 RU.
The dsDNA templates for in vitro transcription of the aptamers were prepared by primer extension of two oligo DNAs using Q5 High-Fidelity DNA Polymerase (NEB). AC17-4 RNA aptamer and its mutants containing 3′ poly(A) tail (Table 4) were synthesized by in vitro transcription using ScriptMAX Thermo T7 Transcription Kit (TOYOBO) according to the manufacturer's instructions. The reaction products were treated with 2 U TURBO DNase (Thermo Fisher Scientific) for 30 min at 37° C. and purified with RNA Clean & Concentrator-25 Kit (Zymo Research). RNA concentrations were determined by absorbance at 260 nm according to OligoCalc^54. RNA solutions (~3.6 μM) were prepared in water and denatured by heating at 80° C. for 3 min. After cooling at room temperature for few minutes, the RNA solutions were diluted with an equal volume of high salt buffer (10 mM Tris-HCl, pH 7.5, 1 M NaCl, 1 mM EDTA). Stock solutions of ASP2905 and ASP7967 in DMSO (20 mM, fumaric acid adduct, Astellas Pharma, Inc.) were prepared based on the weight. […] An aptamer ligand was injected at 30 μl min^−1 for 120 s to monitor association, and then the dissociation kinetics was monitored for 180 s in the SPR running buffer. […] The raw data were analysed by Biacore T200 Evaluation Software 1.0 using 1:1 Langmuir interaction model. […] Dissociation constant (KD) was determined from the ratio of the association and the dissociation rate constants (KD=koff/kon) or by equilibrium analysis. […]

SMILES | Kd | affinity for AC17-4 (in words)
Fc1ccc(Nc2nc(NCc3ncccn3)nc(Nc3ccc(F)cc3)n2)cc1 [ASP7967] | 12 nM | comparable affinity
Fc1ccc(Nc2nc(NCc3ncccn3)nc(Nc3ccccc3)n2)cc1 [ASP2905, reference compound] | 7.7 nM | comparable affinity
